# Measured values reported in patent publication US11753363B2, “13-oxidized ingenol derivative and use thereof” (Tianjin Pharmaceutical Da Ren Tang Group Corp., Ltd. …, priority 2017, dated 2023).
# Legend:
# Type in all cases: cell-based
# [1] = tested on: A549 (human lung cancer cells); experiment: Inhibition of proliferation of tumor cell lines (MTT), A549; conditions: A549, 72 h; for IC50: Homo sapiens, read-out: IC50 value of compound for inhibition of proliferation of tumor cell lines, A549
# Method: (§1) In this example, the inhibitory activity of compounds of the present invention against proliferation of seven human tumor cell lines and mouse B16-F10 melanoma cells was tested in vitro, and the IC50 value (50% inhibitory concentration) of compounds against each tumor cell line was calculated.
# (§2) The seven human tumor cell lines are: MCF-7 (human breast cancer cells), LOVO (human colon cancer cells), A549 (human lung cancer cells), BGC-823 (human gastric cancer cells), SMMC-7721 (human liver cancer cells), K562 (human leukemia cells), and HeLa (human cervical cancer cells).
# (§3) IC50 values of the compounds for A549, BGC-823, LOVO, MCF-7, SMMC-7721, HeLa, and B16-F10 cells were tested. The above cells were routinely cultured in 1640 nutrient solution containing 10% calf serum, with passage for 1 time every 2 days, and the cells in logarithmic growth phase were taken for experiments. After the A549, BGC-823, LOVO, MCF-7, SMMC-7721, HeLa and B16-F10 cells in logarithmic growth phase were subjected to 0.25% trypsin digestion, they were blown into a single cell suspension, and then the cell concentration was adjusted to about 1×10^5·mL^−1 using RPMI 1640 solution containing 10% calf serum. The cells were seeded in a 96-well culture plate at 100 μL per well, and cultured for 24 hours until the cells were attached. K562 cells were taken and centrifuged and diluted into 2×10^5·mL^−1 single cell suspension with RPMI 1640 solution containing 10% calf serum, and inoculated into a 96-well culture plate at 100 μL per well.
# (§4) 100 μL of sample solution with different concentrations to be tested were added to the above 96-well plate, each concentration was added to 4 wells in parallel, and the cell control group was added with an equal volume of RPMI 1640 medium containing 10% calf serum to make a reaction volume of 200 μL. After incubating in an incubator at 37° C., 5% CO2 for 72 h, 10 μL of 5 mg·mL^−1 MTT solution was added to each well, and incubated at 37° C. for 4 h. The supernatant was carefully aspirated, 180 μL of DMSO was added to each well followed by shaking, and the absorbance (OD) value was measured at 570 nm on the microplate reader. The inhibition rate was calculated, and regression equation was established with the logarithmic value of the sample concentration and the inhibition rate (IR) to find the IC50 value of the compound against the cells to be tested. IR (%)=(1−OD value of the experimental group/OD value of the cell control group)×100%
# [2] = tested on: MCF-7 (human breast cancer cells); experiment: Inhibition of proliferation of tumor cell lines (MTT), MCF-7; conditions: for IC50: Homo sapiens, MCF7, MCF-7, 72 h, read-out: IC50 value of compound for inhibition of proliferation of tumor cell lines, MCF-7
# Method: as §1, §2, §3, §4
# [3] = tested on: neutrophilic granulocytes; experiment: Neutrophil oxidative burst (luminol chemiluminescence); conditions: rat neutrophils, (Csample−Ccontrol)/Ccontrol×100%; for activation at 0.1 µg/mL / activation at 3 µg/mL: Neutrophil, read-out: Efficiency of compounds in stimulating neutrophil oxidative burst; for activation at 0.1 µg/mL: 0.1 μg/mL
# Method: This example investigated the effect of compound on neutrophil oxidative burst and calculated the efficiency of each compound in stimulating neutrophil oxidative burst.
# Blood was taken from the abdominal aorta of rat. The neutrophilic granulocytes were isolated by the operational procedure of the rat peripheral blood neutrophil isolation kit. The neutrophilic granulocytes were re-suspended by Hanks, and were plated in a 96-well white plate at 1×10^5 cells/well, 80 μL/well; 1 mM of Luminol was added at 10 μL/well; 10 μL of the sample was added to each well, and the degree of oxidative burst was evaluated by chemiluminescence. Calculation formula of Efficiency: Efficiency (%)=(Csample−Ccontrol)/Ccontrol×100%
# [4] = tested on: K562 (human leukemia cells); experiment: Inhibition of proliferation of tumor cell lines (MTT), K562; conditions: K562, 72 h; for IC50: Homo sapiens, read-out: IC50 value of compound for inhibition of proliferation of tumor cell lines, K562
# Method: as §1, §2, §3, §4
# [5] = tested on: SMMC-7721 (human liver cancer cells); experiment: Inhibition of proliferation of tumor cell lines (MTT), SMMC-7721; conditions: SMMC-7721, 72 h; for IC50: Homo sapiens, read-out: IC50 value of compound for inhibition of proliferation of tumor cell lines, SMMC-7721
# Method: as §1, §2, §3, §4
# [6] = tested on: BGC-823 (human gastric cancer cells); experiment: Inhibition of proliferation of tumor cell lines (MTT), BGC-823; conditions: BGC-823, 72 h; for IC50: Homo sapiens, read-out: IC50 value of compound for inhibition of proliferation of tumor cell lines, BGC-823
# Method: as §1, §2, §3, §4
# [7] = tested on: mouse B16-F10 melanoma cells; experiment: Inhibition of proliferation of tumor cell lines (MTT), B16-F10; conditions: B16-F10, 72 h; for IC50: Mus musculus, read-out: IC50 value of compound for inhibition of proliferation of tumor cell lines, B16-F10
# Method: as §1, §3, §4
# [8] = tested on: release of IL-8 by human keratinocytes (HaCaT); experiment: Release of IL-8 by human keratinocytes (HaCaT), IL-8 Elisa; conditions: 24 h, (Csample−Ccontrol)/Ccontrol×100%; for activation at 0.1 µg/mL: Homo sapiens, HaCaT, read-out: Efficiency of compound in stimulating the release of IL-8 by HaCaT cells
# Method: This Example investigated the effect of compound on release of IL-8 by human keratinocytes (HaCaT) and calculated the efficiency of each compound in stimulating the release of IL-8 by human keratinocytes (HaCaT).
# Hacat cells were cultured in MEM+10% FBS under the conditions of 37° C., 5% CO2, and when the cells reached 80-95% fusion, they were inoculated into a 96-well culture plate (1×10^4 cells/well) at 100 μL/well, and incubated for 18-24 h. The supernatant was discarded and the cells were incubated for 3-6 h in 1% FBS medium. Different concentrations of the sample solution of compound to be tested were added to each well, and the cell control group was added with an equal volume of 1% FBS medium at 10 μL/well, and incubated for 24 h. The supernatant was taken and tested according to the operation sequence of the IL-8 Elisa kit. Calculation formula of Efficiency: Efficiency (%)=(Csample−Ccontrol)/Ccontrol×100%
# [9] = tested on: LOVO (human colon cancer cells); experiment: Inhibition of proliferation of tumor cell lines (MTT), LOVO; conditions: 72 h; for IC50: Homo sapiens, read-out: IC50 value of compound for inhibition of proliferation of tumor cell lines, LOVO
# Method: as §1, §2, §3, §4
# [10] = tested on: HeLa (human cervical cancer cells); experiment: Inhibition of proliferation of tumor cell lines (MTT), HeLa; conditions: 72 h; for IC50: Homo sapiens, read-out: IC50 value of compound for inhibition of proliferation of tumor cell lines, HeLA
# Method: as §1, §2, §3, §4
structure (smiles),measurement,setting,value
"CCCCCCCCCCCC(=O)O[C@@]12C[C@@H](C)[C@]34C=C(C)[C@H](OC(=O)C(C)C(C)C)[C@@]3(O)[C@H](O)C(CO)=C[C@H](C4=O)[C@@H]1C2(C)C (some centres unmarked) [3-O-(2,3-dimethylbutyryl)-13-O-dodecanoyl-ingenol]",IC50,[1],11 µg/mL
same,IC50,[2],9.05 µg/mL
same,activation at 0.1 µg/mL,[3],71.4%
same,IC50,[4],0.12 µg/mL
same,IC50,[5],14.5 µg/mL
same,IC50,[6],10.4 µg/mL
same,IC50,[7],17.8 µg/mL
same,activation at 0.1 µg/mL,[8]; 0.1 μg/mL,50%
same,IC50,[9],7.6 µg/mL
same,IC50,[10],24.3 µg/mL
"C/C=C(/C)C(=O)O[C@H]1C(C)=C[C@]23C(=O)[C@@H](C=C(CO)[C@@H](O)[C@]12O)[C@H]1[C@@H](C[C@H]3C)C1(C)C [3-O-angeloyl-ingenol, reference compound]","IC50 value of compound for inhibition of proliferation of tumor cell lines, A549",[1],31.2 µg/mL
same,"IC50 value of compound for inhibition of proliferation of tumor cell lines, MCF-7","[2]; MCF-7, 72 h",57.4 µg/mL
same,Efficiency of compounds in stimulating neutrophil oxidative burst,[3]; 3 μg/mL,51.4%
same,"IC50 value of compound for inhibition of proliferation of tumor cell lines, K562",[4],0.0076 µg/mL
same,"IC50 value of compound for inhibition of proliferation of tumor cell lines, SMMC-7721",[5],28.2 µg/mL
same,"IC50 value of compound for inhibition of proliferation of tumor cell lines, BGC-823",[6],43.5 µg/mL
same,"IC50 value of compound for inhibition of proliferation of tumor cell lines, B16-F10",[7],38.1 µg/mL
same,Efficiency of compound in stimulating the release of IL-8 by HaCaT cells,[8]; 0.1 μg/mL,31.9%
same,Efficiency of compound in stimulating the release of IL-8 by HaCaT cells,[8]; 1 μg/mL,41.4%
same,"IC50 value of compound for inhibition of proliferation of tumor cell lines, LOVO",[9],33.4 µg/mL
same,"IC50 value of compound for inhibition of proliferation of tumor cell lines, HeLA",[10],49.4 µg/mL
"CCCCCCCCCCCC(=O)O[C@@]12C[C@@H](C)[C@]34C=C(C)[C@H](O)[C@@]3(O)[C@H](O)C(COC(=O)C(C)C(C)C)=C[C@H](C4=O)[C@@H]1C2(C)C (some centres unmarked) [20-O-(2,3-dimethylbutyryl)-13-O-dodecanoyl-ingenol]",IC50,[1],8.89 µg/mL
same,IC50,[2],10.1 µg/mL
same,activation at 3 µg/mL,[3]; 3 μg/mL,64.5%
same,IC50,[4],0.64 µg/mL
same,IC50,[5],10.7 µg/mL
same,IC50,[6],11 µg/mL
same,IC50,[7],16.6 µg/mL
same,IC50,[9],8.36 µg/mL
same,IC50,[10],14.5 µg/mL
"CCCCCCCC(=O)O[C@@]12C[C@@H](C)[C@]34C=C(C)[C@H](O)[C@@]3(O)[C@H](O)C(CO)=C[C@H](C4=O)[C@@H]1C2(C)C [Compound 7, 13-O-n-octanoyl-ingenol]",IC50,[1],29.7 µg/mL
same,IC50,[2],16.2 µg/mL
same,activation at 3 µg/mL,[3]; 3 μg/mL,45%
same,IC50,[4],1.72 µg/mL
same,IC50,[5],16 µg/mL
same,IC50,[6],25.1 µg/mL
same,IC50,[7],38.4 µg/mL
same,IC50,[9],24.1 µg/mL
same,IC50,[10],29.3 µg/mL
"CCCCCCCCCCCC(=O)O[C@@]12C[C@@H](C)[C@]34C=C(C)[C@H](OC(C)=O)[C@@]3(O)[C@H](O)C(CO)=C[C@H](C4=O)[C@@H]1C2(C)C [Compound 10, 3-O-acetyl-13-O-dodecanoyl-ingenol]",IC50,[1],10.7 µg/mL
same,IC50,[2],16.3 µg/mL
same,activation at 0.1 µg/mL,[3],111%
same,IC50,[4],0.22 µg/mL
same,IC50,[5],13.1 µg/mL
same,IC50,[6],14.7 µg/mL
same,IC50,[7],21.4 µg/mL
same,activation at 0.1 µg/mL,[8]; 0.1 μg/mL,79.5%
same,IC50,[9],9.41 µg/mL
same,IC50,[10],10.9 µg/mL
"CCCCCCCCCCCC(=O)O[C@@]12C[C@@H](C)[C@]34C=C(C)[C@H](OC(=O)CCC)[C@@]3(O)[C@H](O)C(CO)=C[C@H](C4=O)[C@@H]1C2(C)C [Compound 11, 3-O-n-butanoyl-13-O-dodecanoyl-ingenol]",IC50,[1],14.3 µg/mL
same,IC50,[2],18.5 µg/mL
same,activation at 3 µg/mL,[3]; 3 μg/mL,33.5%
same,IC50,[4],0.1 µg/mL
same,IC50,[5],19.1 µg/mL
same,IC50,[6],13.4 µg/mL
same,IC50,[7],26.2 µg/mL
same,IC50,[9],8.82 µg/mL
same,IC50,[10],20.3 µg/mL
"CCCCCCCCCCCC(=O)O[C@@]12C[C@@H](C)[C@]34C=C(C)[C@H](O)[C@@]3(O)[C@H](O)C(COC(=O)CCC)=C[C@H](C4=O)[C@@H]1C2(C)C [Compound 13, 20-O-n-butanoyl-13-O-dodecanoyl-ingenol]",IC50,[1],17.2 µg/mL
same,IC50,[2],18 µg/mL
same,activation at 3 µg/mL,[3]; 3 μg/mL,62.4%
same,IC50,[4],0.07 µg/mL
same,IC50,[5],12.5 µg/mL
same,IC50,[6],12.4 µg/mL
same,IC50,[7],30.5 µg/mL
same,activation at 0.1 µg/mL,[8]; 0.1 μg/mL,30.3%
same,IC50,[9],6.93 µg/mL
same,IC50,[10],24.2 µg/mL
"C/C=C(/C)C(=O)OCC1=C[C@@H]2C(=O)[C@]3(C=C(C)[C@H](O)[C@@]3(O)[C@@H]1O)[C@H](C)C[C@]1(OC(=O)CCCCCCCCCCC)[C@H]2C1(C)C [Compound 15b, 20-O-angeloyl-13-O-dodecanoyl-ingenol]",IC50,[1],10 µg/mL
same,IC50,[2],23.3 µg/mL
same,activation at 3 µg/mL,[3]; 3 μg/mL,360%
same,IC50,[4],0.001 µg/mL
same,IC50,[5],13.1 µg/mL
same,IC50,[6],20.6 µg/mL
same,IC50,[7],9.09 µg/mL
same,IC50,[9],15.2 µg/mL
same,IC50,[10],10.2 µg/mL
